Where a name gives a salt, the structure may show the parent alone. Values belong to the molecule of their own block, whether it stands above or below them.
Experiments:
[1] = Polymorphic stability of crystalline forms over a period of time; type: physicochemical
[2] = Storage stability of crystalline form L2 (temperature/RH conditions, HPLC purity); type: physicochemical
[3] = neat crystalline dihydrochloride salts N1 and N2, screening studies; cited from earlier work

SMILES: COC(=O)N[C@H](C(=O)N1CCC[C@H]1c1nc(-c2ccc(-c3ccc(-c4c[nH]c([C@@H]5CCCN5C(=O)[C@@H](NC(=O)OC)C(C)C)n4)cc3)cc2)c[nH]1)C(C)C [form L1, N,N′-[[1,1′-biphenyl]-4,4′-diylbis[1H-imidazole-5,2-diyl-(2S)-2,1-pyrrolidinediyl[(1S)-1-(1-methylethyl)-2-oxo-2,1-ethanediyl]]]bis-carbamic acid, C,C′-dimethyl ester, hydrochloride (1:2)]
polymorphic stability (conversion to any other polymorphic form) [1]: stable and do not get converted to any other polymorphic form

stability ([2]; 5±3° C.): stable
stability ([2]; 25±2° C./60±5% RH): stable
stability ([2]; 40±2° C./75±5% RH): stable
SMILES: COC(=O)N[C@H](C(=O)N1CCC[C@H]1c1nc(-c2ccc(-c3ccc(-c4c[nH]c([C@@H]5CCCN5C(=O)[C@@H](NC(=O)OC)C(C)C)n4)cc3)cc2)c[nH]1)C(C)C [form L2, N,N′-[[1,1′-biphenyl]-4,4′-diylbis[1H-imidazole-5,2-diyl-(2S)-2,1-pyrrolidinediyl[(1S)-1-(1-methylethyl)-2-oxo-2,1-ethanediyl]]]bis-carbamic acid, C,C′-dimethyl ester, hydrochloride (1:2)]

SMILES: COC(=O)N[C@H](C(=O)N1CCC[C@H]1c1nc(-c2ccc(-c3ccc(-c4c[nH]c([C@@H]5CCCN5C(=O)[C@@H](NC(=O)OC)C(C)C)n4)cc3)cc2)c[nH]1)C(C)C [form N-2, N,N′-[[1,1′-biphenyl]-4,4′-diylbis[1H-imidazole-5,2-diyl-(2S)-2,1-pyrrolidinediyl[(1S)-1-(1-methylethyl)-2-oxo-2,1-ethanediyl]]]bis-carbamic acid, C,C′-dimethyl ester, hydrochloride (1:2)]
thermodynamic stability among polymorphs [3]: thermodynamically most stable polymorph
